Laboratory results as given in paper PMC5513037, “Examining the influence of specificity ligands and ATP-competitive ligands on the overall effectiveness of bivalent kinase inhibitors” (Proteome Science, 2017).

Legend:
Assay in all cases: KAM-matrix competition in K562 lysate;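 for 0.001 uM KAM: median log10 fold change of treatment over DMSO control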;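 for 0.01 uM KAM: median log10 fold change of treatment over DMSO control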;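 for 0.1 uM KAM: median log10 fold change of treatment over DMSO control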;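 for 1 uM KAM: median log10 fold change of treatment over DMSO control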;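 for 10 uM KAM: median log10 fold change of treatment over DMSO control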
Assay type in all cases: binding
EPHB6 = target: T1, EPHB6 (Homo sapiens, UniProt O15197)
T1 construct: endogenous in cells; host or cells: K562
T1 sequence (O15197 32-1021): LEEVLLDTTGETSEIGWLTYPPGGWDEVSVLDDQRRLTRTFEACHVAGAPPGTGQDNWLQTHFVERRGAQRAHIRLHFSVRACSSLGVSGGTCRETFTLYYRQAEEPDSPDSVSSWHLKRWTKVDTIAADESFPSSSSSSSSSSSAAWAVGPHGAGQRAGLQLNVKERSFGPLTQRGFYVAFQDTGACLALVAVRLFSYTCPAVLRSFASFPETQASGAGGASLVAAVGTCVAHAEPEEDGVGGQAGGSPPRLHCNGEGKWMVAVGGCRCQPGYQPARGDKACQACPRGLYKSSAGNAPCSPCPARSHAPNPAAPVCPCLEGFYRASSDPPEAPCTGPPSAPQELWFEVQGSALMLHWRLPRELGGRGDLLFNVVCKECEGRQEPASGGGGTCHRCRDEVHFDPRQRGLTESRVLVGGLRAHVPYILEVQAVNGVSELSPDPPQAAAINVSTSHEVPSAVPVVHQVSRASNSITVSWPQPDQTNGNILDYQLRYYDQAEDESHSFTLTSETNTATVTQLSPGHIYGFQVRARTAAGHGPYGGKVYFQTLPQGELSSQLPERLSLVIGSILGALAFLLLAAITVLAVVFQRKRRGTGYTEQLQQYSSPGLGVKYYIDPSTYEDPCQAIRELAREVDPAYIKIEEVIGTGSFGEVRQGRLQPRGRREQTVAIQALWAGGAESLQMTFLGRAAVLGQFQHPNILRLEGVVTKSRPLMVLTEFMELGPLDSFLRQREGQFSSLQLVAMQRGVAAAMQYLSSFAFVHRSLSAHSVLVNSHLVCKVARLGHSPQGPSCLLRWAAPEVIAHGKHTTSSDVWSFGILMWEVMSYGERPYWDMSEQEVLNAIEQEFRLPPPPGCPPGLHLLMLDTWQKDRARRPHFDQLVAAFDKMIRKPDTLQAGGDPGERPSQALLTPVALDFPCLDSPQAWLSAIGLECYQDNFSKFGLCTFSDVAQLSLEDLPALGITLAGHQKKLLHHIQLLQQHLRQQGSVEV
Description: (§1) Supplement 12953_2017_125_MOESM1_ESM.zip/MS_Supp Info.xlsx, sheet "KAM" | column: 10 uM KAM; 1 uM KAM; 0.1 uM KAM; 0.01 uM KAM; 0.001 uM KAM; RB50

MTOR = target: T2, MTOR (Homo sapiens, UniProt P42345);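 for 0.001 uM KAM: median log10 fold change of treatment over DMSO control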;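 for 0.01 uM KAM: median log10 fold change of treatment over DMSO control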;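 for 0.1 uM KAM: median log10 fold change of treatment over DMSO control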;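 for 1 uM KAM: median log10 fold change of treatment over DMSO control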;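 for 10 uM KAM: median log10 fold change of treatment over DMSO control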
T2 construct: endogenous in cells; host or cells: K562
Description: as §1

PTK2B = target: T3, PTK2B (Homo sapiens, UniProt Q14289)
T3 construct: endogenous in cells; host or cells: K562
Description: as §1

ATR = target: T4, ATR (Homo sapiens, UniProt Q13535);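 for 0.001 uM KAM: median log10 fold change of treatment over DMSO control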;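 for 0.01 uM KAM: median log10 fold change of treatment over DMSO control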;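 for 0.1 uM KAM: median log10 fold change of treatment over DMSO control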;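 for 1 uM KAM: median log10 fold change of treatment over DMSO control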;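 for 10 uM KAM: median log10 fold change of treatment over DMSO control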
T4 construct: endogenous in cells; host or cells: K562
Description: as §1

FLT1 = target: T5, FLT1 (Homo sapiens, UniProt P17948);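 for 0.001 uM KAM: median log10 fold change of treatment over DMSO control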;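 for 0.01 uM KAM: median log10 fold change of treatment over DMSO control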;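 for 0.1 uM KAM: median log10 fold change of treatment over DMSO control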;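 for 1 uM KAM: median log10 fold change of treatment over DMSO control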;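 for 10 uM KAM: median log10 fold change of treatment over DMSO control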
T5 construct: endogenous in cells; host or cells: K562
Description: as §1

IRAK4 = target: T6, IRAK4 (Homo sapiens, UniProt Q9NWZ3)
T6 construct: endogenous in cells; host or cells: K562
T6 sequence (Q9NWZ3 1-460): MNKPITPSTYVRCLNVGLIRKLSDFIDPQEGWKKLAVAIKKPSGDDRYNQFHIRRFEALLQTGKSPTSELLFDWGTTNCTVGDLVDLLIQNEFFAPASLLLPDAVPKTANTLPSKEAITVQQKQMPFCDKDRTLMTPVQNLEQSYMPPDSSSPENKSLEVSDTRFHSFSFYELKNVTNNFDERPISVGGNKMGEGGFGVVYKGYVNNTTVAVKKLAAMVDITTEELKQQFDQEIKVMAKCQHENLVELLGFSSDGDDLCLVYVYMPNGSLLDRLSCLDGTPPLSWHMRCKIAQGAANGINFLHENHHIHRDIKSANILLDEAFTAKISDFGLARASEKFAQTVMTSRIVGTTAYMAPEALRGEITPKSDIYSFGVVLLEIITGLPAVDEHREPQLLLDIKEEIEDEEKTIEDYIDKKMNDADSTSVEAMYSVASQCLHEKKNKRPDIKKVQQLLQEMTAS
Description: as §1

PAK6 = target: T7, PAK6 (Homo sapiens, UniProt Q9NQU5)
T7 construct: endogenous in cells; host or cells: K562
Description: as §1

SYK = target: T8, SYK (Homo sapiens, UniProt P43405)
T8 construct: K562 cell pellets were thawed on ice and resuspended in cold Lysis buffer; endogenous in cells; host or cells: K562
Description: as §1

MAP3K9 = target: T9, MAP3K9 (Homo sapiens, UniProt P80192)
T9 construct: endogenous in cells; host or cells: K562
Description: as §1

ROCK2 = target: T10, ROCK2 (Homo sapiens, UniProt O75116);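 for 0.001 uM KAM: median log10 fold change of treatment over DMSO control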;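 for 0.01 uM KAM: median log10 fold change of treatment over DMSO control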;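 for 0.1 uM KAM: median log10 fold change of treatment over DMSO control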;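 for 1 uM KAM: median log10 fold change of treatment over DMSO control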;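 for 10 uM KAM: median log10 fold change of treatment over DMSO control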
T10 construct: endogenous in cells; host or cells: K562
Description: as §1

[1] = read-out: RB50 (the source's name)
[2] = KAM 0.001-10 uM, read-out: RB50 (the source's name)

T10 sequence (O75116 whole entry): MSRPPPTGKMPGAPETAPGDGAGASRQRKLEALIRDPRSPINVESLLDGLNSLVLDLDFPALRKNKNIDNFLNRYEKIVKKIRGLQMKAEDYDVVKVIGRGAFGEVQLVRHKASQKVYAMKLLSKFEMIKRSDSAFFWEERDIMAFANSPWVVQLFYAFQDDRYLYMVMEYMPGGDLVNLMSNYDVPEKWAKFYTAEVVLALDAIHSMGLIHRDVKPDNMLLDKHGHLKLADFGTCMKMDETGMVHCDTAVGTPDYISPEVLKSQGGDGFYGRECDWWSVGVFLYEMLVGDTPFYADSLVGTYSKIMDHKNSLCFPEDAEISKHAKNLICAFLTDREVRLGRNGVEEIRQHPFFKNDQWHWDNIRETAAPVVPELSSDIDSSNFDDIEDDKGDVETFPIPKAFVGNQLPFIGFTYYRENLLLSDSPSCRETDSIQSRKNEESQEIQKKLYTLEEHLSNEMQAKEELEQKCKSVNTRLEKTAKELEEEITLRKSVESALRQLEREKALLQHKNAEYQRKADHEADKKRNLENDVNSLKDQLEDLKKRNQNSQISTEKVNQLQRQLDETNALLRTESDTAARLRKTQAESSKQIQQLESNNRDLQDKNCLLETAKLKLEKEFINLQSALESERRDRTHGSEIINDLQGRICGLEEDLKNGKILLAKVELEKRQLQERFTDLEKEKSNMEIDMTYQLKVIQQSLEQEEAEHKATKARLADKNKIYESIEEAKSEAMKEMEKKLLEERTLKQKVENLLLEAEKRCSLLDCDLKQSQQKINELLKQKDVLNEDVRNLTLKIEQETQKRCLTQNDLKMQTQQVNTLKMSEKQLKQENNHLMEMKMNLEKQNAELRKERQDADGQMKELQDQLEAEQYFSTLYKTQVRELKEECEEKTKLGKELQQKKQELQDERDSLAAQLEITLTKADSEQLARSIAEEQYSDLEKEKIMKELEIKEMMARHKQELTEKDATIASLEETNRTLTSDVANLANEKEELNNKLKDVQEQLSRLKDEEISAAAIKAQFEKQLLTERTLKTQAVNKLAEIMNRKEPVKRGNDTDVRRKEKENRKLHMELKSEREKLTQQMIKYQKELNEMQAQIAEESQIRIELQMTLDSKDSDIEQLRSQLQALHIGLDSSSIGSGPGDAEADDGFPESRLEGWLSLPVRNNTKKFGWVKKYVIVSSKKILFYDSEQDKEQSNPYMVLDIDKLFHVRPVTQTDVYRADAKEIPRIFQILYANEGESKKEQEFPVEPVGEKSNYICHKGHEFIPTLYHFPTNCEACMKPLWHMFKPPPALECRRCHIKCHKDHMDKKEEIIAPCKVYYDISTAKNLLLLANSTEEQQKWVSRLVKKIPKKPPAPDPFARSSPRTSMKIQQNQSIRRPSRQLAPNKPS
T4 sequence (Q13535 whole entry): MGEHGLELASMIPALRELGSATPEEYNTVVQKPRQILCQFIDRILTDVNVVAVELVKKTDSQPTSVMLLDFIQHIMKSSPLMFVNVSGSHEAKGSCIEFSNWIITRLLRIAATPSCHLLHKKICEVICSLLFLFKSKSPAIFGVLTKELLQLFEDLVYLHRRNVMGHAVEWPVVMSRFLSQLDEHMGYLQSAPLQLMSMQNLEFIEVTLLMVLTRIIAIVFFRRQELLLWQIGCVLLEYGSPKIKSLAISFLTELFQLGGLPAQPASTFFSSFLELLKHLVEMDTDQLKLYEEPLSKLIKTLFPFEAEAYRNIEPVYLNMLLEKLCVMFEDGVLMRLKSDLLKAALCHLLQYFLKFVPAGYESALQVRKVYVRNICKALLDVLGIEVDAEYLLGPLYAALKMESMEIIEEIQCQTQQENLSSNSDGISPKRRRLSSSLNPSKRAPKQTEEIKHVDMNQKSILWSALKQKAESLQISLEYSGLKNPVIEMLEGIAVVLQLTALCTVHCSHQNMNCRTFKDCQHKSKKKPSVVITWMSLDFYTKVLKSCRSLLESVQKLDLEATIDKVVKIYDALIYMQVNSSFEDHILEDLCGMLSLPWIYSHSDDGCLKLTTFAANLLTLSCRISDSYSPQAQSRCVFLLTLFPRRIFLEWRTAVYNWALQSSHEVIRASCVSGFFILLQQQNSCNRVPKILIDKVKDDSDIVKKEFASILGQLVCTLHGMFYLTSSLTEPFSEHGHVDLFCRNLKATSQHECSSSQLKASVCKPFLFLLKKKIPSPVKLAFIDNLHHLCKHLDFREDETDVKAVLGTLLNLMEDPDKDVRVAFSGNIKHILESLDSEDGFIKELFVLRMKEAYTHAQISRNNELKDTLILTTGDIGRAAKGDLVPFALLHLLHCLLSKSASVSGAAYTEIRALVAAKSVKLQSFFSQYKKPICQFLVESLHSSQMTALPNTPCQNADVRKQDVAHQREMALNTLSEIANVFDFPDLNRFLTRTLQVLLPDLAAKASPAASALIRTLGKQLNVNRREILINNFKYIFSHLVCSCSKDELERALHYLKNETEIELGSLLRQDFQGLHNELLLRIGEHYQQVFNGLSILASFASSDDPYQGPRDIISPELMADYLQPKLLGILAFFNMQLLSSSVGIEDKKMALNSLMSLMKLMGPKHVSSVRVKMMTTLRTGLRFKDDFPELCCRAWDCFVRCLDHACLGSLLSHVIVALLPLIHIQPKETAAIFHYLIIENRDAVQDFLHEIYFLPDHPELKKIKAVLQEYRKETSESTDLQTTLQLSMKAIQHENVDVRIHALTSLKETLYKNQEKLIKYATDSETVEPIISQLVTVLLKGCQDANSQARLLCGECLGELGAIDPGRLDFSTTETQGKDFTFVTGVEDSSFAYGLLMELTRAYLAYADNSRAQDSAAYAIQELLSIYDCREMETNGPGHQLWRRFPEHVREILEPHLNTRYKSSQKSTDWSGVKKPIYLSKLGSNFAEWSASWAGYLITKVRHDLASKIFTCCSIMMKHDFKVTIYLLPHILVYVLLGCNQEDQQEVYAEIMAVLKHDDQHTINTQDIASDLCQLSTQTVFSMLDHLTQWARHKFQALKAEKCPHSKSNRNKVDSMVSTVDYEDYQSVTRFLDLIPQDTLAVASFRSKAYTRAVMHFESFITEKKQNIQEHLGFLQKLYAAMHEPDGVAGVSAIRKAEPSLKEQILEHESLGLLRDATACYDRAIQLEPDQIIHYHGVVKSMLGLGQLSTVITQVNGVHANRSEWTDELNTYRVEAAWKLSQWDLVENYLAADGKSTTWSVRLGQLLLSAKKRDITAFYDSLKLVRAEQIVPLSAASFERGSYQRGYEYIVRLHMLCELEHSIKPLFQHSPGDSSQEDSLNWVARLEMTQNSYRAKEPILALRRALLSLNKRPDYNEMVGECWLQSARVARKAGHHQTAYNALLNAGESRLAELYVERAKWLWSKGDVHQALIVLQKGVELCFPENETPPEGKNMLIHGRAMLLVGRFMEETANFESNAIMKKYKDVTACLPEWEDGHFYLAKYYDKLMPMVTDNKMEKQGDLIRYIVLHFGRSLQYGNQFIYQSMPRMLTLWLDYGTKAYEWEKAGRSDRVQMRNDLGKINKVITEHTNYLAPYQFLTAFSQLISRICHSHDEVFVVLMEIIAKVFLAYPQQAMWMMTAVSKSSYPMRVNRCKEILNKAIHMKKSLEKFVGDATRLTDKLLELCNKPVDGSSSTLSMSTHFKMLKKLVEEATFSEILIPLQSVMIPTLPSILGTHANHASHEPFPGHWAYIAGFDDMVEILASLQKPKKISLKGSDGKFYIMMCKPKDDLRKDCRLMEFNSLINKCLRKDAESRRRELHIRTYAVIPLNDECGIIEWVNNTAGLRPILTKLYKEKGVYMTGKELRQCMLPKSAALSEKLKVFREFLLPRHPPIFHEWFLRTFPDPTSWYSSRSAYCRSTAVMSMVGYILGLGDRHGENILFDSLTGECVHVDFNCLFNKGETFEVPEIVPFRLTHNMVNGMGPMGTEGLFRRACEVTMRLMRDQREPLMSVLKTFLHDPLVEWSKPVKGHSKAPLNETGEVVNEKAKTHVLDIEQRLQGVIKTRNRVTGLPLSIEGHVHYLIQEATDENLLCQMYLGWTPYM
T4 sequence (Q8WXE1 whole entry partner): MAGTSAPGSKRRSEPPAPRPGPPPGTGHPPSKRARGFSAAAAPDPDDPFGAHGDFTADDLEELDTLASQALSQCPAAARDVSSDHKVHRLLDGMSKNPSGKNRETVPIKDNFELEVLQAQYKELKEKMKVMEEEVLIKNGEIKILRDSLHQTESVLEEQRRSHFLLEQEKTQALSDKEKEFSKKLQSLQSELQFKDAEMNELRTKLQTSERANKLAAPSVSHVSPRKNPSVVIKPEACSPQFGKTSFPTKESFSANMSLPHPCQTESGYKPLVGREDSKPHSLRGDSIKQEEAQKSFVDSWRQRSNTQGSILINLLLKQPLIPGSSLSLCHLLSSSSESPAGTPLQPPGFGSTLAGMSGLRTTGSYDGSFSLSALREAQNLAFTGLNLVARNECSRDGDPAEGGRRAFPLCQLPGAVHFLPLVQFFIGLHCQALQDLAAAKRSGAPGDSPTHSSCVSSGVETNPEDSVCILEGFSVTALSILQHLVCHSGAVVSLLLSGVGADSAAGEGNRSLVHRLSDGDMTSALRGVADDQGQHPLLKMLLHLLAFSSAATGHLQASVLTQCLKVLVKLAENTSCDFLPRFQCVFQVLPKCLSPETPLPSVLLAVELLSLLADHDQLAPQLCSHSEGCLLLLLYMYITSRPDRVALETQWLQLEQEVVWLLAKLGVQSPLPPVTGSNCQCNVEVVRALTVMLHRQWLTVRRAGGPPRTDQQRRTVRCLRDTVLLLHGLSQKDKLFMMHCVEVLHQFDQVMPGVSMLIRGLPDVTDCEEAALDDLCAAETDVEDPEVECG

With N#CCc1ccc(Nc2nc(NCCCN)cc(Nc3cc(C4CC4)[nH]n3)n2)cc1 [KAM] the “median Log10 fold change” value (EPHB6; 0.001 uM KAM) was -0.01655, the “median Log10 fold change” value (EPHB6; 0.01 uM KAM) was -0.02112 and the “median Log10 fold change” value (EPHB6; 0.1 uM KAM) was -0.1129. For the same compound, the “median Log10 fold change” value (EPHB6; 1 uM KAM) was -0.2258, the “median Log10 fold change” value (EPHB6; 10 uM KAM) was -0.3985 and the IC50 (EPHB6; [1]) was 2510 nM. The IC50 (MTOR; [2]) was greater than 10000 nM, the “0.001 uM KAM” value (MTOR; relative to 0 uM KAM = 0) was -0.05296 and the “0.01 uM KAM” value (MTOR; relative to 0 uM KAM = 0) was -0.02855. The “0.1 uM KAM” value (MTOR; relative to 0 uM KAM = 0) was -0.0574, the “1 uM KAM” value (MTOR; relative to 0 uM KAM = 0) was -0.03577 and the “10 uM KAM” value (MTOR; relative to 0 uM KAM = 0) was -0.01614. The “median Log10 fold change” value (PTK2B; 0.001 uM KAM) was -0.01732, the “median Log10 fold change” value (PTK2B; 0.01 uM KAM) was -0.009714 and the “median Log10 fold change” value (PTK2B; 0.1 uM KAM) was -0.1905. The “median Log10 fold change” value (PTK2B; 1 uM KAM) was -0.4119, the “median Log10 fold change” value (PTK2B; 10 uM KAM) was -0.5329 and the IC50 (PTK2B; [1]) was 460 nM. The IC50 (ATR; [2]) was greater than 10000 nM, the “0.001 uM KAM” value (ATR; relative to 0 uM KAM = 0) was -0.04695 and the “0.01 uM KAM” value (ATR; relative to 0 uM KAM = 0) was 0.002576. The “0.1 uM KAM” value (ATR; relative to 0 uM KAM = 0) was -0.08926, the “1 uM KAM” value (ATR; relative to 0 uM KAM = 0) was -0.01418 and the “10 uM KAM” value (ATR; relative to 0 uM KAM = 0) was 0.03196. For the same compound, the IC50 (FLT1; [2]) was greater than 10000 nM, the “0.001 uM KAM” value (FLT1; relative to 0 uM KAM = 0) was -0.03836 and the “0.01 uM KAM” value (FLT1; relative to 0 uM KAM = 0) was 0.0203. The “0.1 uM KAM” value (FLT1; relative to 0 uM KAM = 0) was -0.001012, the “1 uM KAM” value (FLT1; relative to 0 uM KAM = 0) was -0.1879 and the “10 uM KAM” value (FLT1; relative to 0 uM KAM = 0) was -0.2168. The “median Log10 fold change” value (IRAK4; 0.001 uM KAM) was -0.01083, the “median Log10 fold change” value (IRAK4; 0.01 uM KAM) was -0.003774 and the “median Log10 fold change” value (IRAK4; 0.1 uM KAM) was -0.1174. For the same compound, the “median Log10 fold change” value (IRAK4; 1 uM KAM) was -0.3495, the “median Log10 fold change” value (IRAK4; 10 uM KAM) was -0.4574 and the IC50 (IRAK4; [1]) was 922 nM. For the same compound, the “median Log10 fold change” value (PAK6; 0.001 uM KAM) was -0.09371, the “median Log10 fold change” value (PAK6; 0.01 uM KAM) was 0.03145 and the “median Log10 fold change” value (PAK6; 0.1 uM KAM) was -0.196. For the same compound, the “median Log10 fold change” value (PAK6; 1 uM KAM) was -0.3777, the “median Log10 fold change” value (PAK6; 10 uM KAM) was -0.6349 and the IC50 (PAK6; [1]) was 519 nM. For the same compound, the “median Log10 fold change” value (SYK; 0.001 uM KAM) was -0.04062, the “median Log10 fold change” value (SYK; 0.01 uM KAM) was -0.03667 and the “median Log10 fold change” value (SYK; 0.1 uM KAM) was -0.2061. For the same compound, the “median Log10 fold change” value (SYK; 1 uM KAM) was -0.3555, the “median Log10 fold change” value (SYK; 10 uM KAM) was -0.3656 and the IC50 (SYK; [1]) was 714 nM. The “median Log10 fold change” value (MAP3K9; 0.001 uM KAM) was -0.03702, the “median Log10 fold change” value (MAP3K9; 0.01 uM KAM) was 0.03625 and the “median Log10 fold change” value (MAP3K9; 0.1 uM KAM) was -0.05744. The “median Log10 fold change” value (MAP3K9; 1 uM KAM) was -0.2576, the “median Log10 fold change” value (MAP3K9; 10 uM KAM) was -0.4734 and the IC50 (MAP3K9; [1]) was 1800 nM. For the same compound, the IC50 (ROCK2; [2]) was greater than 10000 nM, the “0.001 uM KAM” value (ROCK2; relative to 0 uM KAM = 0) was 0.005547 and the “0.01 uM KAM” value (ROCK2; relative to 0 uM KAM = 0) was 0.004918. The “0.1 uM KAM” value (ROCK2; relative to 0 uM KAM = 0) was -0.08686, the “1 uM KAM” value (ROCK2; relative to 0 uM KAM = 0) was -0.1587 and the “10 uM KAM” value (ROCK2; relative to 0 uM KAM = 0) was -0.127.
